Literature values, collected in patent EP3463364B1, “PYRAZINE DERIVATIVES FOR USE IN THE TREATMENT OF DISEASES ASSOCIATED WITH CELL CYCLE DYSREGULATION” (University of Patras, priority 2016, dated 2017).

Target: T1, Geminin-Cdtl interaction (Homo sapiens, UniProt Q9H211)
T1 sequence (Q9H211 1-546): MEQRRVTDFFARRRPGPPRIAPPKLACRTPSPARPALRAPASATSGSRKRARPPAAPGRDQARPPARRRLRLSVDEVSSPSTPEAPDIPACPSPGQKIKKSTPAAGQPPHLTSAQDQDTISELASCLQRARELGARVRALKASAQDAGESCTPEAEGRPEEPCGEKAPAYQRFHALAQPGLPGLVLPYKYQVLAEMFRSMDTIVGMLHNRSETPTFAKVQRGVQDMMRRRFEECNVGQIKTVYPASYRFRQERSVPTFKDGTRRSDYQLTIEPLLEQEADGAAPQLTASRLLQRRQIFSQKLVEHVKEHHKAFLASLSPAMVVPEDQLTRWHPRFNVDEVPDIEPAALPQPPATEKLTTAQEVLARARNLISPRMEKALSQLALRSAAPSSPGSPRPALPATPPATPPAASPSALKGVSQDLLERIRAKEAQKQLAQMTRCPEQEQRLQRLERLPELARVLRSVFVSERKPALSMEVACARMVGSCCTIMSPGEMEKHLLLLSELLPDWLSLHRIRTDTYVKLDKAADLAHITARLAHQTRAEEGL
Settings: in vitro, through binding to the Cdtl licensing factor; literature; cited from earlier work

Row | Compound | inhibition of the Geminin-Cdtl interaction
1 | COC1=C(OC)C(=O)C(C/C=C(\C)CC/C=C(\C)CC/C=C(\C)CC/C=C(\C)CC/C=C(\C)CC/C=C(\C)CC/C=C(\C)CC/C=C(\C)CC/C=C(\C)CCC=C(C)C)=C(C)C1=O [coenzyme Q10] | inhibit the interaction of the two proteins in vitro
2 | CCCCCCCC/C=C\CCCCCCCC(=O)O [oleic acid (C18:1), oleic acid] | inhibit the interaction of the two proteins in vitro
